In US8822517B2, “Arylosulfonamides for the treatment of CNS diseases” (Adamed SP. Z O.O., priority 2010, dated 2014):

How the values were obtained:
[1] = target: T1, serotoninergic 5-HT1A receptor (Homo sapiens, UniProt P08908); assay: Binding assay 5-HT1A (h), [3H]8-OH-DPAT, HEK-293 cells; set-up: expressed in transfected cells; host or cells: HEK-293 cells; conditions: read-out: 5-HT1A
T1 sequence (P08908 1-422): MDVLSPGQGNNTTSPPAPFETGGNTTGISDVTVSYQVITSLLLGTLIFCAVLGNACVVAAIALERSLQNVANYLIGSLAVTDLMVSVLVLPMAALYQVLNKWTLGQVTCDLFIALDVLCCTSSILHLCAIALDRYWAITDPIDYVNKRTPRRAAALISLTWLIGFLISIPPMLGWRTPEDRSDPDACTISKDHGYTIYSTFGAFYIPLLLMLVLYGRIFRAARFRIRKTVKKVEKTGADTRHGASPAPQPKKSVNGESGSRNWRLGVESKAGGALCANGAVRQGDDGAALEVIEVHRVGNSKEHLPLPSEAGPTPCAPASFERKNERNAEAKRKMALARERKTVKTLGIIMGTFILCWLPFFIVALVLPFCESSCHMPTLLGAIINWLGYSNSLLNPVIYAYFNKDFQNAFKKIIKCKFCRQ
Summary of the method: (§1)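 Compounds were screened at 1×10^−6 M, and bound radioactivity was measured by scintillation counting. Specific binding equals total binding minus nonspecific binding obtained with an excess of unlabelled ligand.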

[2] = target: serotoninergic 5-HT7 receptor (Homo sapiens, UniProt P34969); assay: Cellular functional assay, serotoninergic 5-HT7 receptor (agonism/antagonism); type: cell-based; conditions: for activation at 1 µM: agonist effect, percent of control specific agonist response, compounds tested at 1×10^−6M, read-out: 5-HT7-ag [%]; for inhibition at 1 µM: read-out: 5-HT7-antag. [%]
Protocol: (§2) The compounds were tested at the concentration of 1×10^−6M.
(§3) In the Tables ag refers to agonism, and antag to antagonism).

dopaminergic D2 receptor [3] = target: T2, dopaminergic D2 receptor (Homo sapiens, UniProt P14416); assay: Binding assay D2S (h), [3H]methyl-spiperone, HEK-293 cells; set-up: expressed in transfected cells; host or cells: HEK-293 cells; conditions: read-out: D2 [%]
Summary of the method: as §1
Target sequence in this assay (P14416 1-414 isoform P14416-2): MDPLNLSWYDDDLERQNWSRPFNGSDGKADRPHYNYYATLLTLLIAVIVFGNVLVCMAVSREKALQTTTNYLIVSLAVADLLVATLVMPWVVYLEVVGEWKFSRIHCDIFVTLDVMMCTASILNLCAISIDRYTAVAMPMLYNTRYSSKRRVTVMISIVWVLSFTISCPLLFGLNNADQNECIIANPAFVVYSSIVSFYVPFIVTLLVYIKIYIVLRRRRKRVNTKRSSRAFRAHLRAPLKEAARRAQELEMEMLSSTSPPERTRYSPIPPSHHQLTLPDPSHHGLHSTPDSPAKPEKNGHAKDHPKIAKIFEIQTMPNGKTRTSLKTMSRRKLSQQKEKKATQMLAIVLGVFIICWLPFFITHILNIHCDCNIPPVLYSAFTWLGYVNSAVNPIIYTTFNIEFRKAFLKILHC

[4] = target: T3, serotonine transporter (SERT) receptor (Homo sapiens, UniProt P31645); assay: Binding assay SERT (h), [3H]imipramine, CHO cells; conditions: read-out: SERT [%]
T3 construct: expressed in transfected cells; host or cells: CHO cells
Summary of the method: as §1

[5] = target: serotoninergic 5-HT2A receptor (Homo sapiens, UniProt P28223); assay: Binding assay 5-HT2A (h), [3H]ketanserin, HEK-293 cells; set-up: expressed in transfected cells; host or cells: HEK-293 cells; conditions: read-out: 5-HT2A
Summary of the method: as §1

dopaminergic D2 receptor [6] = target: T2, dopaminergic D2 receptor; assay: Cellular functional assay, dopaminergic D2 receptor (agonism/antagonism); type: cell-based; conditions: HEK293; for activation at 1 µM: agonist effect, percent of control specific agonist response (3 μM dopamine for control), 1×10^−6 M, D2S (h), HEK-293 cells, read-out: D2-ag [%]; for inhibition at 1 µM: read-out: D2-antag. [%]
Protocol: as §2, §3
Target sequence in this assay (P14416 whole entry): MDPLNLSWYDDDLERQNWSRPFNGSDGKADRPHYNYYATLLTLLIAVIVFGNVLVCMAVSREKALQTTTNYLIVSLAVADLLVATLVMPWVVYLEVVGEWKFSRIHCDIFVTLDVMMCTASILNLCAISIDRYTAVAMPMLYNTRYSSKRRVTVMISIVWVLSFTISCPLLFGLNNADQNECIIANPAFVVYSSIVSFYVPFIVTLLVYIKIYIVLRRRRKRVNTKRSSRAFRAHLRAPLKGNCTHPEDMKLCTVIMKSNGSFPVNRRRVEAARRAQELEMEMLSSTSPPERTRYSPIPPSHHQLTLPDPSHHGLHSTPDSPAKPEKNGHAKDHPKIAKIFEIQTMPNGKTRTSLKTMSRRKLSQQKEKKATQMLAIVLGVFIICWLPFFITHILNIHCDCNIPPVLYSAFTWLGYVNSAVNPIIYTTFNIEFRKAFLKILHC

adrenergic α1 receptor = assay: Binding assay α1 (non-selective), [3H]prazosin, rat cerebral cortex; conditions: percent inhibition of control specific binding; compounds tested at 1×10^−6 M
Summary of the method: as §1

sigma σ receptor = assay: Binding assay σ (non-selective), [3H]DTG, rat cerebral cortex; conditions: percent inhibition of control specific binding; compounds tested at 1×10^−6 M
Summary of the method: as §1

[7] = target: histaminergic H1 receptor (Homo sapiens, UniProt P35367); assay: Cellular functional assay, histaminergic H1 receptor (agonism/antagonism); type: cell-based; conditions: for activation at 1 µM: agonist effect, percent of control specific agonist response, compounds tested at 1×10^−6M, read-out: H1 -ag [%]; for inhibition at 1 µM: read-out: H1 -antag. [%]
Protocol: as §2, §3

adrenergic α1A receptor = target: T4, adrenergic α1A receptor (Homo sapiens, UniProt P35348); assay: Cellular functional assay, adrenergic α1A receptor (agonism/antagonism); type: cell-based; conditions: for activation at 1 µM: agonist effect, percent of control specific agonist response, compounds tested at 1×10^−6M, read-out: α1A -ag [%]; for inhibition at 1 µM: read-out: α1A -antag. [%]
T4 sequence (P35348 1-466): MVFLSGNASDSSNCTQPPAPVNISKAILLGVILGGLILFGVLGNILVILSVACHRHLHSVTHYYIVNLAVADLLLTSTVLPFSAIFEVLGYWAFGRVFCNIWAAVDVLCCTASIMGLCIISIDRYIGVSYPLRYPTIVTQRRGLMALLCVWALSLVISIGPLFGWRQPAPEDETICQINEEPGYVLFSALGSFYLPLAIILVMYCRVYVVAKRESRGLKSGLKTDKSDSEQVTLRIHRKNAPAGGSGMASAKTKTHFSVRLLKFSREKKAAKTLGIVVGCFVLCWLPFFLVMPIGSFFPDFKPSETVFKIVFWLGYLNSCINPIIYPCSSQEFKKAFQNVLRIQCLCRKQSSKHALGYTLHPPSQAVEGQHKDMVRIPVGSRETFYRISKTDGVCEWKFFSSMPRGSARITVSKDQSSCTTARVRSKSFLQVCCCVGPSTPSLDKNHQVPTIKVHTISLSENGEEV
Summary of the method: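 Human receptors tested in cell-based functional format for both agonist and antagonist modes. Single compound concentration of 1×10^−6M.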

[8] = target: T1, serotoninergic 5-HT1A receptor; assay: Cellular functional assay, serotoninergic 5-HT1A receptor (agonism/antagonism); type: cell-based; conditions: for inhibition at 1 µM: CHO, read-out: 5-HT1A-antag. [%]; for activation at 1 µM: agonist effect, percent of control specific agonist response (100 nM 8-OH-DPAT for control), 1×10^−6 M, 5-HT1A (h), CHO cells, read-out: 5-HT1A-ag [%]
Protocol: as §2, §3

Sequence of serotoninergic 5-HT7 receptor (P34969 whole entry): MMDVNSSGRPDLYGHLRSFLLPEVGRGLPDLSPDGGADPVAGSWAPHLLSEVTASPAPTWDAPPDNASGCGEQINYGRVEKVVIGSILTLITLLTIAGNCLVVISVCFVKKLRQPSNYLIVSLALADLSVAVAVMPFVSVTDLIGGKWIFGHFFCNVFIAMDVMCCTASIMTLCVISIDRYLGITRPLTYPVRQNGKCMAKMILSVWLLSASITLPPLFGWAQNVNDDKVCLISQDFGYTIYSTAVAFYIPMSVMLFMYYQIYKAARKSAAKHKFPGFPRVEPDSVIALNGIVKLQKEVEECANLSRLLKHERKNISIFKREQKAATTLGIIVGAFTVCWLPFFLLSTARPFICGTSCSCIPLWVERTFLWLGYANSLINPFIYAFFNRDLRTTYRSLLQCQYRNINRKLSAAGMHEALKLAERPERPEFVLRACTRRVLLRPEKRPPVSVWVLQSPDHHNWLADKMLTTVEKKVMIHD
Sequence of histaminergic H1 receptor (P35367 whole entry): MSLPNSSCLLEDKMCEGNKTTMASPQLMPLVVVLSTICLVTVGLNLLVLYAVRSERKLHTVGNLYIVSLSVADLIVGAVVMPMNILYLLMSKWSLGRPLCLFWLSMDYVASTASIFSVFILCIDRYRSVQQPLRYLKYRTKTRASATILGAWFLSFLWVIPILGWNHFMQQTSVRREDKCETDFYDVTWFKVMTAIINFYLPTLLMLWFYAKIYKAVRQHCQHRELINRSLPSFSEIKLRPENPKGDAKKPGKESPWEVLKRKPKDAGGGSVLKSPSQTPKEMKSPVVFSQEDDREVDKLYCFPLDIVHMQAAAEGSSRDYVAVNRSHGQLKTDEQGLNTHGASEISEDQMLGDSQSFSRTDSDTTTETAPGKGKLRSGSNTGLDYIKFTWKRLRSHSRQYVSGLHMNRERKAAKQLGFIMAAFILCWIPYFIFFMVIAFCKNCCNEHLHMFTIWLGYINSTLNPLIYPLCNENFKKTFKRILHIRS
T3 sequence (P31645 whole entry): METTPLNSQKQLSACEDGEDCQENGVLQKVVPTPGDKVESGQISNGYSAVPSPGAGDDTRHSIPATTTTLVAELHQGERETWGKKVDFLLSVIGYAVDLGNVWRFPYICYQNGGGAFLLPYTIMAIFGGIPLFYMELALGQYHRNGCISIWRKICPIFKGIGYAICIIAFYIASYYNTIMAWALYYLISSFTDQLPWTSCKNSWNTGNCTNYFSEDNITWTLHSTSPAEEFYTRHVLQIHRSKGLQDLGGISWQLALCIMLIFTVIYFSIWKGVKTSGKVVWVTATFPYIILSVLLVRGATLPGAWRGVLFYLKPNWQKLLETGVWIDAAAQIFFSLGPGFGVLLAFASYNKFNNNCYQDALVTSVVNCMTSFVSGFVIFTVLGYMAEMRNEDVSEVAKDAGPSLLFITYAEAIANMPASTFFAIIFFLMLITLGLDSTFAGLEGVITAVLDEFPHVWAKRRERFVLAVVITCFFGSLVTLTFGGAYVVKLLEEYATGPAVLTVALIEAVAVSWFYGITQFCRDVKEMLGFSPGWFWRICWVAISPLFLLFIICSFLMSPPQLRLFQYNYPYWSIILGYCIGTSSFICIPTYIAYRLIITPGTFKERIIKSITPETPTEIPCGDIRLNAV
Sequence of serotoninergic 5-HT2A receptor (P28223 whole entry): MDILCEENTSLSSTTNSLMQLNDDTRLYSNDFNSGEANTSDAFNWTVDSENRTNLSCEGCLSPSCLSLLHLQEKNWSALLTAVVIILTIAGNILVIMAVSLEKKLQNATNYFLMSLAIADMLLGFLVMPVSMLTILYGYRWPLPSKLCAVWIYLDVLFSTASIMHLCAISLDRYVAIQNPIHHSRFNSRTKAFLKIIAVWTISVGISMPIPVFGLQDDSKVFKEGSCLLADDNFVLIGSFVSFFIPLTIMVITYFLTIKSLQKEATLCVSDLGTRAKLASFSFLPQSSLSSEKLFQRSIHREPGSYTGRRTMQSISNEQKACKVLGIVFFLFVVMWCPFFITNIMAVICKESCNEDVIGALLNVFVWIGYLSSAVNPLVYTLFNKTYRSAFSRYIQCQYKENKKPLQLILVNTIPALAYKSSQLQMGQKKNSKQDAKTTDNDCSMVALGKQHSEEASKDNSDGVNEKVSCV

Compound | inhibition at 1 µM [1] [%] | activation at 1 µM [2] [%] | inhibition at 1 µM [2] [%] | inhibition at 1 µM (dopaminergic D2 receptor [3]) [%] | inhibition at 1 µM [4] [%] | inhibition at 1 µM [5] [%] | activation at 1 µM (dopaminergic D2 receptor [6]) [%] | inhibition at 1 µM (dopaminergic D2 receptor [6]) [%] | α1 [%] (adrenergic α1 receptor) | σ [%] (sigma σ receptor) | activation at 1 µM [7] [%] | inhibition at 1 µM [7] [%] | activation at 1 µM (adrenergic α1A receptor) [%] | inhibition at 1 µM (adrenergic α1A receptor) [%] | inhibition at 1 µM [8] [%] | activation at 1 µM [8] [%]
O=S(=O)(NCCCCN1CCN(c2nsc3ccccc23)CC1)c1csc2ccccc12 [Compound 240, N-[4-[4-(1,2-Benzothiazol-3-yl)piperazin-1-yl]butyl]benzothiophene-3-sulphonamide] | 98 | -2 | 98 | 101 | 46 | 101 | 3 | 83 | 96 | 44 | 0 | 69 | 0 | 100 | 50 | 9
O=S(=O)(NCCCCN1CCN(c2nsc3ccccc23)CC1)c1cc2ccc(Cl)cc2s1 [Compound 241, N-[4-[4-(1,2-Benzothiazol-3-yl)piperazin-1-yl]butyl]-6-chlorobenzothiophene-2-sulphonamide] | 98 | -2 | 83 | 100 | 50 | 101 | 6 | 82 | 93 | 51 | 1 | 47 | 0 | 95 | 42 | 5
